These results are taken from PMC11693508, “Pharmacokinetics, bioavailability, and tissue distribution of MRTX1133 in rats using UHPLC-MS/MS” (Frontiers in Pharmacology, 2024).

Each structure is given as a SMILES string. Like-named read-outs stand apart in the source and are kept apart here.

This data set is described as follows: Pharmacokinetic study in rats after intragastric and intravenous administration (plasma, UHPLC-MS/MS). The data set is classed as in vivo, Sprague-Dawley rats. The note with it: for Tmax: po, 25 mg/kg; for AUC(0-t): n = 10; for MRT last: read-out: MRT(0-t). As for the experimental part:
The pharmacokinetic study was performed using oral solutions of MRTX1133 in 5% carboxymethyl-cellulose sodium (CMC-Na) at a concentration of 2.5 mg mL^-1 (the dose was 25 mg kg^-1 and 10 mL kg^-1). The intravenous solution was prepared at a concentration of 5 mg mL^-1 in polyethylene glycol 400 and dimethyl sulfoxide (8%). Twenty rats were randomly divided into two groups (ten rats each group), the rats in one group were given MRTX1133 by intravenous administration at 5 mg kg^-1 and the other group by intragastric administration at 25 mg kg^-1. Rats were slightly anesthetized with diethyl ether, blood samples were collected (approximately 150 µL) from the suborbital vein, and placed into heparinized tubes at 0.17 h, 0.33 h, 0.5h, 0.75 h, 1 h, 1.5 h, 2 h, 3 h, 4 h, 6 h, 8 h, 10 h, and 24 h after treatment. The rats were treated with saline at the same volume by gavage and used as control. Blood samples were centrifuged at 20,800 g for 10 min (at 4°C) and stored at - 80°C.
The DAS 3.2 software package (edited by the Chinese Mathematical Pharmacology Society) was used for the pharmacokinetic data analysis and the non-compartmental model was applied. The oral bioavailability (F) of MRTX1133 was measured by comparing each area under the curve (AUC) 0-t value after intragastric (i.g.) and intravenous (i.v.) administration according to the equation: F = (AUC i. g./Dose i. g.)/(AUC i. v./Dose i. v.).

The mark [1] stands for this setting: Sprague-Dawley, rat plasma, intravenous 5 mg/kg.
[2] abbreviates: Sprague-Dawley, rat plasma, oral 25 mg/kg.

As to `C#Cc1c(F)ccc2cc(O)cc(-c3ncc4c(N5CC6CCC(C5)N6)nc(OC[C@@]56CCCN5C[C@H](F)C6)nc4c3F)c12` [MRTX1133], the bioavailability (usually dose-corrected exposure relative to a reference, in per cent) (Sprague-Dawley, plasma, oral, rat, AUC(0-t) i.g. 25 mg/kg vs i.v. 5 mg/kg, read-out: F (oral bioavailability)) amounted to 2.92%. Further, the CL/F reads like this: (Sprague-Dawley, plasma, rat, oral 25 mg/kg, read-out: CL/F (converted)) 199 L/h/kg; (rat, intravenous 5 mg/kg) 5.14 ± 1.58 L/h/kg. For the same molecule, the Tmax runs as follows: (Sprague-Dawley, rat, plasma, rat plasma, oral 25 mg/kg, read-out: Tmax) 0.6 ± 0.13 h; (Sprague-Dawley, rat, plasma, rat plasma, oral 25 mg/kg, read-out: time of peak plasma concentration (converted)) 0.75 h. The half-life – broadly, the time in which the quantity being followed falls by half – is, setting by setting: under setting [1], 2.88 ± 1.08 h; under setting [2], 1.12 ± 0.46 h. Besides, the AUC(0-t) (as a rule, the area under the concentration-time curve up to a stated or last time point) is 928 ± 192 ng·h/mL under setting [1] and 136 ± 46.5 ng·h/mL (Sprague-Dawley, rat plasma, oral (intragastric) 25 mg/kg). Also, the MRT last is, setting by setting: under setting [1], 1.34 ± 0.6 h; under setting [2], 1.25 ± 0.18 h. The Cmax (commonly the maximum level reached in the sampled fluid or tissue) under setting [2] is 130 ± 25.2 ng/mL. Besides, the “plasma concentration 8 h after intravenous administration” value (rat plasma, intravenous 5 mg/kg, 8 h) was “bleow the limit of quantitation”. For the same molecule, the “plasma concentration 6 h after oral administration” value (rat plasma, oral 25 mg/kg, 6 h) is listed as “bleow the limit of quantitation”. Moreover, the V/F is 22.83 ± 11.67 L/kg (rat, intravenous 5 mg/kg) and 318.99 ± 157.43 L/kg (rat, oral 25 mg/kg).
